# Measurements: patent publication US20060167057A1, “Compounds for the treatment of CNS and amyloid associated diseases” (priority 2004, published 2006)
# Biological target: T1, L1 transport system (large neutral amino acid carrier, L1-system carrier) (Rattus norvegicus, UniProt Q63016)
# T1 construct: functionality of their endogenous transporters such as the L1-system carrier; endogenous in cells; host or cells: rat primary cerebrovascular (brain microcapillary) endothelial cells, RBEC
# Experiment: Competitive binding assay to the brain L1 transport system (L-[U-14C]phenylalanine on rat primary cerebrovascular endothelial cells)
# Details: compounds of Example 4; 10^−6, 10^−5 and 10^−4; Δ versus phenylalanine
# Outline: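 Cells were primary cerebral microvascular endothelial cells from cortices of 24-day-old rats, isolated by collagenase/DNAse digestion, dextran separation and mesh filtration.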
# T1 sequence (Q63016 whole entry): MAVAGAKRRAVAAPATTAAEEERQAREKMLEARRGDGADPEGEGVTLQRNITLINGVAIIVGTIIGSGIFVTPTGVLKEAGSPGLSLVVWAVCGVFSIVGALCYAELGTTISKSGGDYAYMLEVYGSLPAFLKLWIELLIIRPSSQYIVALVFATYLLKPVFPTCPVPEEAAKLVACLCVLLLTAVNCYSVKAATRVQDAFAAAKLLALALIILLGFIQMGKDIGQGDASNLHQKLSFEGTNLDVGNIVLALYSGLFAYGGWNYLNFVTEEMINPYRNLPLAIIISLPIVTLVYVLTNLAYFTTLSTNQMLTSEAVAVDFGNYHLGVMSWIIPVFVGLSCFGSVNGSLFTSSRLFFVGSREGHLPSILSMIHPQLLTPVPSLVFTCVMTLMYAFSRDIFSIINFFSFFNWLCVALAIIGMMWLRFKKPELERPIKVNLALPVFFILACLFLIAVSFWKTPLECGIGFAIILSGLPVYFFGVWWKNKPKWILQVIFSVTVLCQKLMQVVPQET
# T1 sequence (Q794F9 whole entry partner): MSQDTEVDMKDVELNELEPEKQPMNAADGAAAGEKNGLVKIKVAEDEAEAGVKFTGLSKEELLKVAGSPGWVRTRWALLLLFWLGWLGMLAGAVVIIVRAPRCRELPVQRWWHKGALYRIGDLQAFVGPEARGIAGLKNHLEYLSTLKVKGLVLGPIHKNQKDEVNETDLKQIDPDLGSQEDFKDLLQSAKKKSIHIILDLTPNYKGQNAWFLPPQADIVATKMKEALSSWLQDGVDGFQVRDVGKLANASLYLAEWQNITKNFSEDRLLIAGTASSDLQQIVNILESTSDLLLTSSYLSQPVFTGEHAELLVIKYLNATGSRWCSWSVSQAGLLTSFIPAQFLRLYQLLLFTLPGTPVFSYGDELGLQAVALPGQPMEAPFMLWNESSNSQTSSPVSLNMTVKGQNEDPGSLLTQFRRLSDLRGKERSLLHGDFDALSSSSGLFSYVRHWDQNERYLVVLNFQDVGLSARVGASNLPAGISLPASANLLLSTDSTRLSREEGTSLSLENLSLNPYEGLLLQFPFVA
row,Structure (SMILES),Status of Binding
1,N[C@@H](Cc1cccc(CSc2nccc(C(F)(F)F)n2)n1)C(=O)O [drawing 476],"1 (1: −10 > Δ > −50%, lower binding affinity than phenylalanine)"
2,N[C@@H](Cc1cccc(CSc2nc3ccc(Cl)cc3s2)n1)C(=O)O [drawing 477],"1 (1: −10 > Δ > −50%, lower binding affinity than phenylalanine)"
3,N[C@@H](Cc1cccc(CS(=O)(=O)c2nc3ccccc3[nH]2)c1)C(=O)O [drawing 478],2 (2: 10% ≧ Δ ≧ −10% similar binding affinity to phenylalanine)
4,N[C@@H](Cc1cccc(C[S+]([O-])c2nnnn2-c2ccccc2)n1)C(=O)O (stereo partly drawn) [drawing 479],"1 (1: −10 > Δ > −50%, lower binding affinity than phenylalanine)"
5,N[C@@H](Cc1cccc(CSc2nnnn2-c2ccc(O)cc2)c1)C(=O)O [drawing 480],"3 (3: Δ > 10%, significantly higher binding affinity than phenylalanine)"
6,COc1ccc(-n2nnnc2[S+]([O-])Cc2cccc(C[C@H](N)C(=O)O)c2)cc1 (stereo partly drawn) [drawing 481],"3 (3: Δ > 10%, significantly higher binding affinity than phenylalanine)"
7,N[C@@H](Cc1cccc(C[S+]([O-])c2nnc(-c3ccccc3)[nH]2)c1)C(=O)O (stereo partly drawn) [drawing 482],"1 (1: −10 > Δ > −50%, lower binding affinity than phenylalanine)"
8,N[C@@H](Cc1cccc(CS(=O)(=O)c2ncc[nH]2)c1)C(=O)O [drawing 483],"1 (1: −10 > Δ > −50%, lower binding affinity than phenylalanine)"
9,N[C@@H](Cc1cccc(CSc2nnc(-c3ccncc3)o2)c1)C(=O)O [drawing 484],2 (2: 10% ≧ Δ ≧ −10% similar binding affinity to phenylalanine)
10,CN(C)CCn1nnnc1SCc1cccc(C[C@H](N)C(=O)O)c1 [drawing 485],"1 (1: −10 > Δ > −50%, lower binding affinity than phenylalanine)"
11,N[C@@H](Cc1cccc(CSc2nnc(-c3ccncc3)[nH]2)c1)C(=O)O [drawing 486],2 (2: 10% ≧ Δ ≧ −10% similar binding affinity to phenylalanine)

# Biological target: T2, IAPP (Homo sapiens, UniProt P10997)
# T2 construct: which is a 37 amino acid peptide, derived from a larger precursor peptide, called pro-IAPP
# T2 sequence (P10997 34-70 limits assumed): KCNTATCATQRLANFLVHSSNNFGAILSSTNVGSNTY
# Experiment: Electrospray MS assay for binding to IAPP
# Set-up: key to MS Results (IAPP binding), Water: 0 = None
# Details: 100 μM compound, 20 μM IAPP, pH 7.4, 20% ethanol in water
# Description: The ability of a therapeutic compound of the invention to inhibit an interaction between an amyloidogenic protein and a glycoprotein or proteoglycan constituent of a basement membrane can be assessed by an in vitro binding assay, such as that described in U.S. Pat. No. 5,164,295, the contents of which are hereby incorporated by reference. Alternatively, the ability of a compound to bind to an amyloidogenic protein or to inhibit the binding of a basement membrane constituent (e.g. HSPG) to an amyloidogenic protein (e.g. Aβ) can be measured using a mass spectrometry assay where soluble protein, e.g Aβ, IAPP, β2M is incubated with the compound. A compound which binds to, e.g Aβ, will induce a change in the mass spectrum of the protein. Exemplary protocols for a mass spectrometry assay employing Aβ and IAPP can be found in the Examples, the results of which are provided in Table 5. The protocol can readily be modified to adjust the sensitivity of the data, e.g., by adjusting the amount of protein and/or compound employed. Thus, e.g., binding might be detected for test compounds noted as not having detectable binding employing less sensitive test protocols.
# The binding ability between the compounds synthesized in Example 4 and IAPP in an aqueous solution is tested. The binding ability is attributed semi-quantitatively from the intensities of peptide-compound complex peaks observed in the Electrospray Mass Spectrum.
# In the MS assay for IAPP, samples are prepared as both aqueous solutions and as 20% ethanol in water solutions, including 100 μM of an exemplary compound as prepared in. Example 4 and 20 μM of solubilized IAPP. The stock solution contains 30 μM IAPP and the initial pH is 3.8. Generally, IAPP precipitates out of solution at concentrations higher than 50 μM and pH higher than ˜6 as soon as a test compound is mixed with the peptide. The pH value of each sample, therefore, is adjusted to 7.4 ([…]) by addition of 0.1% aqueous sodium hydroxide. The solutions aer then analyzed by electrospray ionization mass spectrometry using a Waters ZQ 4000 mass spectrometer. Samples are introduced by direct infusion at a flow-rate of 25 μL/min within 2 hr. after sample preparation. The source temperature is kept at 70° C. and the cone voltage is 20 V for all the analysis. Data are processed using Masslynx 3.5 software. IAPP (MW 3903.4) alone at 20 μM is analyzed at pH 7.32 as a control. Sodium clusters, which are typical of this system at +3 and +4 at m/z 1301.9 and 976.7 regions, may be observed. In Table 8, a blank box means that a value was not determined for that compound in that assay.
row,Structure (SMILES),"MS Results (IAPP binding), 20% Ethanol"
1,COc1ccc(-n2nnnc2SCc2cccc(C[C@H](N)C(=O)O)c2)cc1 [drawing 508],+++ (+++ = Strong (50 and higher % of free peptide))
2,N[C@@H](Cc1cccc(CSc2nnnn2-c2ccccc2)c1)C(=O)O [drawing 509],++ (++ = Moderate (30-50% of free peptide))
3,N[C@@H](Cc1cccc(CSc2nc3ccccc3[nH]2)c1)C(=O)O [drawing 510],+ (+ = Weak (15-30% of free peptide))
4,N[C@@H](Cc1cccc(C[S+]([O-])c2nnnn2-c2ccccc2)c1)C(=O)O (stereo partly drawn) [drawing 518],++ (++ = Moderate (30-50% of free peptide))

# Same assay, conditions: 100 μM compound, 20 μM IAPP, pH 7.4, aqueous solution
row,Structure (SMILES),"MS Results (IAPP binding), Water"
1,N[C@@H](Cc1cccc(CSc2ncc[nH]2)c1)C(=O)O,0
2,N[C@@H](Cc1cccc(CSc2nnnn2-c2ccccc2)c1)C(=O)O [drawing 509],+ (+ = Weak (15-30% of free peptide))
3,N[C@@H](Cc1cccc(CSc2nc3ccccc3[nH]2)c1)C(=O)O [drawing 510],0
4,N[C@@H](Cc1cccc(CSc2nnc(-c3ccccc3)[nH]2)c1)C(=O)O [drawing 511],+ (+ = Weak (15-30% of free peptide))
5,N[C@@H](Cc1cccc(CSc2nc3ccccc3[nH]2)n1)C(=O)O [drawing 512],0
6,N[C@@H](Cc1cccc(CSc2ncnc3[nH]ncc23)n1)C(=O)O [drawing 513],0
7,N[C@@H](Cc1cccc(CS(=O)(=O)c2nc3ccccc3[nH]2)n1)C(=O)O [drawing 514],0
8,COc1ccc(-n2nnnc2[S+]([O-])Cc2cccc(C[C@H](N)C(=O)O)c2)cc1 (stereo partly drawn) [drawing 516],+ (+ = Weak (15-30% of free peptide))
9,N[C@@H](Cc1cccc(CSc2nccc(O)n2)c1)C(=O)O [drawing 517],0
10,N[C@@H](Cc1cccc(C[S+]([O-])c2nnnn2-c2ccccc2)c1)C(=O)O (stereo partly drawn) [drawing 518],++ (++ = Moderate (30-50% of free peptide))
11,N[C@@H](Cc1cccc(CSc2nccc(C(F)(F)F)n2)n1)C(=O)O [drawing 519],insoluble
12,N[C@@H](Cc1cccc(CSc2nc3ccc(Cl)cc3s2)n1)C(=O)O [drawing 520],+++ (+++ = Strong (50 and higher % of free peptide))
